Reference: ChEMBL document CHEMBL5518204, “Discovery and Proof of Concept of Potent Dual Polθ/PARP Inhibitors for Efficient Treatment of Homologous Recombination-Deficient Tumors” (J Med Chem, 2024)
Activity calls are given as the source filed them. No cut-off for these calls is given here.

Legend:
MDA-MB-231 [1] = test: Induction of apoptosis in human MDA-MB-231 cells at 2 uM incubated for 3 days by Annexin V-APC/7-AAD based flow cytometry analysis; assay type: functional; details: time 3 day
MDA-MB-231 [2] = test: Antiproliferative activity against 53BP1-knockdown human MDA-MB-231 cells incubated for 24 hrs by MTT assay; assay type: functional, cell-based
[3] = MRT (0 to infinity) in Sprague-Dawley rat at 1 mg/kg, iv by LC-MS/MS analysis; assay type: ADME, organism-based; details: in vivo
MDA-MB-231 [4] = test: Antitumor activity against human MDA-MB-231 cells xenografted in BALB/c mouse assessed as tumor growth inhibition at 40 mg/kg, ip administered for 21 days; assay type: functional; details: MDA-MB-231, 504 h, time 21 day, read-out: TGI
[5] = Metabolic stability in rat liver microsome assessed as half life; assay type: ADME; details: liver microsomes
[6] = Metabolic stability in human liver microsome assessed as intrinsic clearance; assay type: ADME; details: liver microsomes, read-out: CLH
MDA-MB-231 [7] = test: Induction of cell cycle arrest in human MDA-MB-231 cells assessed as accumulation of cells at G2/M phase at 2 uM incubated for 3 days by PI staining based flow cytometric analysis; assay type: functional; details: time 3.0 day
DNA polymerase theta = DNA polymerase theta (Homo sapiens, UniProt O75417); test: Inhibition of DNA polymerase theta mediated TMEJ repair activity in HEK293 cells incubated for 24 hrs by Nano-glo luciferase assay; assay type: cell-based
Sequence of DNA polymerase theta (O75417 whole entry): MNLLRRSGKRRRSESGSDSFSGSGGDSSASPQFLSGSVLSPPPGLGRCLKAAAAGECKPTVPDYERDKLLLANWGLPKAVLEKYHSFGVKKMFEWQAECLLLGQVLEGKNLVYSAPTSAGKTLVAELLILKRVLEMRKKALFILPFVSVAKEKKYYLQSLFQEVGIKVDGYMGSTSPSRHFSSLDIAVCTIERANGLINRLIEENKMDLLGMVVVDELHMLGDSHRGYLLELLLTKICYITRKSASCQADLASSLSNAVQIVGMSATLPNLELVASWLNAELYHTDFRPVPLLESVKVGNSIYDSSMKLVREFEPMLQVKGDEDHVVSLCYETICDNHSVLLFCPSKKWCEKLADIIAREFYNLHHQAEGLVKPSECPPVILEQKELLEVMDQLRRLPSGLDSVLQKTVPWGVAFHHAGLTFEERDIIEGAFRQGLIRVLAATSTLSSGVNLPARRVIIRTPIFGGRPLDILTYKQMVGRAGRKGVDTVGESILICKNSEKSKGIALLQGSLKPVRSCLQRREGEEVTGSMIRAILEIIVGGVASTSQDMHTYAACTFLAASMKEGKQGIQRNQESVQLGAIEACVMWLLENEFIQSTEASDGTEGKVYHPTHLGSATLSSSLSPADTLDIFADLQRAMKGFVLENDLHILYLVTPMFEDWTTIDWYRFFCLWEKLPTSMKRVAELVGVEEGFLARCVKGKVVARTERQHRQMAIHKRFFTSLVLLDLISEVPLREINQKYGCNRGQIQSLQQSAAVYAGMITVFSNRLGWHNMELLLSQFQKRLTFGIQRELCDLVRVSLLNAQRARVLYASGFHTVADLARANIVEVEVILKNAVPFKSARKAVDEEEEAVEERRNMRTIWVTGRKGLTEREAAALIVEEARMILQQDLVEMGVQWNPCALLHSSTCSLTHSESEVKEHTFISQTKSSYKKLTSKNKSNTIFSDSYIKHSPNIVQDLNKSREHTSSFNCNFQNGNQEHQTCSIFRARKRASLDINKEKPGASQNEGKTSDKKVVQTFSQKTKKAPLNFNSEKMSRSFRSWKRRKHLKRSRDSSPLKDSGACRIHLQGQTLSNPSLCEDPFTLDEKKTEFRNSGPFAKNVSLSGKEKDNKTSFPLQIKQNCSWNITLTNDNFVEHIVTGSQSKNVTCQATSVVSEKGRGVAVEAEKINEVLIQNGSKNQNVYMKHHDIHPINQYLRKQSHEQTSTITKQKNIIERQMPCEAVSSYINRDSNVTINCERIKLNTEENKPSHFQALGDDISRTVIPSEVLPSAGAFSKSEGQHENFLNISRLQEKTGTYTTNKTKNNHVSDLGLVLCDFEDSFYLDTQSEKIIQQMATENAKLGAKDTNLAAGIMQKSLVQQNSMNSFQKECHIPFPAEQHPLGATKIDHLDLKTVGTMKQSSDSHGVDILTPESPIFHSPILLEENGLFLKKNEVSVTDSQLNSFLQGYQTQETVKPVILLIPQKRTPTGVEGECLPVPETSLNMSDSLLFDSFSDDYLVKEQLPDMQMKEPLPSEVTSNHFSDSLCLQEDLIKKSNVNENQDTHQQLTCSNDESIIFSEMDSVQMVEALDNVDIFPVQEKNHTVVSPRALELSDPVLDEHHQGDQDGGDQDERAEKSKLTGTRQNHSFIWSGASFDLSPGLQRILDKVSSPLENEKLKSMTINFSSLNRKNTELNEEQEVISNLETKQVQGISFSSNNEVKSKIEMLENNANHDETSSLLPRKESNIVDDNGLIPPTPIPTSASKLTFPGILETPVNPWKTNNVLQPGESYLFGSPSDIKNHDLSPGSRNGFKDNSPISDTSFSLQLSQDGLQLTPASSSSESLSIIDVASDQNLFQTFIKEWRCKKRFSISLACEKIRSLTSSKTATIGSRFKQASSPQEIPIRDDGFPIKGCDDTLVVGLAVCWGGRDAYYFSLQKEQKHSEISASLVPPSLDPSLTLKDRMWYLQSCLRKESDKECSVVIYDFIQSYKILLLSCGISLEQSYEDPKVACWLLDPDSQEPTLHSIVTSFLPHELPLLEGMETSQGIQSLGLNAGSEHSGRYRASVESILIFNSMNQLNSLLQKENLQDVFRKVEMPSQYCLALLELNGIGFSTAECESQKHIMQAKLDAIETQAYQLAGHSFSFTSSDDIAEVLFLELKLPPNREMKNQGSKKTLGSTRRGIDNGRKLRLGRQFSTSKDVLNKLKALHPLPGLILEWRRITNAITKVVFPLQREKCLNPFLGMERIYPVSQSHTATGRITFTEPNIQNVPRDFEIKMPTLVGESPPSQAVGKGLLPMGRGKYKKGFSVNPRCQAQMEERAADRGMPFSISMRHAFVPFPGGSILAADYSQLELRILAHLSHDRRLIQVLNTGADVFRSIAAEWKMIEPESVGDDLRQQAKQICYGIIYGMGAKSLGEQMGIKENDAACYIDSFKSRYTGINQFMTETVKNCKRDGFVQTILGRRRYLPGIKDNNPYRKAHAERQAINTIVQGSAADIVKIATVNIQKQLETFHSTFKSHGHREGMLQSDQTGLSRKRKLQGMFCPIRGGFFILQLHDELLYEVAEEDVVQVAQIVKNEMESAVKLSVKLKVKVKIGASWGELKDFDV

MDA-MB-231 [8] = test: Antiproliferative activity against human MDA-MB-231 cells incubated for 4 days by MTT assay; assay type: functional, cell-based; details: time 4.0 day
SW48 = test: Antiproliferative activity against BRCA2-deficient human SW48 cells assessed as inhibition of cell proliferation incubated for 5 days by MTT assay; assay type: functional, cell-based; details: SW48, 120 h, read-out: IC50
[9] = Toxicity in BALB/c mouse xenografted with human MDA-MB-231 cells assessed as spleen damage at 20 to 40 mg/kg, ip administered for 21 days by H and E staining based analysis; assay type: organism-based; details: in vivo, 504 h, dose 20-40 mg/kg, time 21 day
HCC1937 = test: Antiproliferative activity against BRCA1-deficient human HCC1937 cells assessed as inhibition of cell proliferation incubated for 5 days by MTT assay; assay type: functional, cell-based; details: HCC1937, 120 h
[10] = Toxicity in BALB/c mouse xenografted with human MDA-MB-231 cells assessed as liver damage at 20 to 40 mg/kg, ip administered for 21 days by H and E staining based analysis; assay type: organism-based; details: in vivo, 504 h, dose 20-40 mg/kg, time 21 day
MDA-MB-231 [11] = test: Induction of DNA damage in human MDA-MB-231 cells assessed as increase in tail intensity at 2 uM incubated for 3 days by florescence microscopic analysis; assay type: functional, cell-based; details: time 3.0 day
[12] = Metabolic stability in mouse liver microsome assessed as intrinsic clearance; assay type: ADME; details: liver microsomes, read-out: CLH
[13] = biological target: T1, Protein mono-ADP-ribosyltransferase TIPARP (Homo sapiens, UniProt Q7Z3E1); test: Inhibition of PARP7 (unknown origin)
T1 sequence (Q7Z3E1 whole entry): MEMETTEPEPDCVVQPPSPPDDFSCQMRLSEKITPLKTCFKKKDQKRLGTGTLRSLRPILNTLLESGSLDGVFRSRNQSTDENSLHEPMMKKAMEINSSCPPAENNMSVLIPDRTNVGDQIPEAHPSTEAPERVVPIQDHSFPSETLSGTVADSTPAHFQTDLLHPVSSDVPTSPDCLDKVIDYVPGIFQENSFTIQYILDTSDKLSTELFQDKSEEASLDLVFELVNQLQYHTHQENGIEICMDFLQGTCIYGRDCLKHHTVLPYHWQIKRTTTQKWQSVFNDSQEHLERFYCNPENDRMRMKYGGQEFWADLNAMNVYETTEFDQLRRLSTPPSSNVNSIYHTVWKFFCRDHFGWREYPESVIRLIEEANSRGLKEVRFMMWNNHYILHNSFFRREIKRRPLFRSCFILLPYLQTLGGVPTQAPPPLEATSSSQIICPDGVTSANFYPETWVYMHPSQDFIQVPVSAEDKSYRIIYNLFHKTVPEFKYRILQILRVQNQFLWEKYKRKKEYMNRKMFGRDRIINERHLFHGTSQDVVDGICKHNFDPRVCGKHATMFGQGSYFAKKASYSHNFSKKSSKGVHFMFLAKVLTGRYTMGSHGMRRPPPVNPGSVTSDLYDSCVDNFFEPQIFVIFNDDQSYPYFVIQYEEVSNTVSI

[14] = biological target: T2, Protein mono-ADP-ribosyltransferase PARP10 (Homo sapiens, UniProt Q53GL7); test: Inhibition of PARP10 (unknown origin)
T2 sequence (Q53GL7 whole entry): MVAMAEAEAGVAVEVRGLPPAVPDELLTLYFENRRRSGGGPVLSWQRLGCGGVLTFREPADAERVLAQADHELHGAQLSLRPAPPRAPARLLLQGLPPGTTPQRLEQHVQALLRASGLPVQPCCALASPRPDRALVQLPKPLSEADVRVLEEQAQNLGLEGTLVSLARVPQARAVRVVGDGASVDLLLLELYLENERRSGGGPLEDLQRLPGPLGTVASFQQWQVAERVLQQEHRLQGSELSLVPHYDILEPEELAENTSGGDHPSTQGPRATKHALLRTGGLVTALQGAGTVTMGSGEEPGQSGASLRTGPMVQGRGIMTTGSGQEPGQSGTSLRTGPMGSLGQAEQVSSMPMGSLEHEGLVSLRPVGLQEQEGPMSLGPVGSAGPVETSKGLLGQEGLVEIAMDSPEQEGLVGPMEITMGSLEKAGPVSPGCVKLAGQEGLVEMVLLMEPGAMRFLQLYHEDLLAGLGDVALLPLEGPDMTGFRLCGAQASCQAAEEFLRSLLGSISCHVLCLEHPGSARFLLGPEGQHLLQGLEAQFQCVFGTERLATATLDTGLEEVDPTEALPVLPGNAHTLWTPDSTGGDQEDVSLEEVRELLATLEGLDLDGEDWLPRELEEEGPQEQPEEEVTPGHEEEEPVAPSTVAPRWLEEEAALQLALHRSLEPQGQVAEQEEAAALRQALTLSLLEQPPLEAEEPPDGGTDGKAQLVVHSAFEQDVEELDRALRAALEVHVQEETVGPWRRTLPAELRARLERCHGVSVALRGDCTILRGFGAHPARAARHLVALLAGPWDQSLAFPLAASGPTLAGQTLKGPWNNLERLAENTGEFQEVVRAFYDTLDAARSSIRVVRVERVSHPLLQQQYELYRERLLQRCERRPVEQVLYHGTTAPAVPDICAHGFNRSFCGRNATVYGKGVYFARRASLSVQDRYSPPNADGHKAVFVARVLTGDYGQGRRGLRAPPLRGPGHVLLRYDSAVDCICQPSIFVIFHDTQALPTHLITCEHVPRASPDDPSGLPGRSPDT

[15] = Half life in Sprague-Dawley rat at 1 mg/kg, iv by LC-MS/MS analysis; assay type: ADME, organism-based; details: in vivo
[16] = biological target: Poly [ADP-ribose] polymerase 1 (Homo sapiens, UniProt P09874); test: Inhibition of human PARP1 incubated for 90 mins by colorimetric assay
Sequence of Poly [ADP-ribose] polymerase 1 (P09874 whole entry): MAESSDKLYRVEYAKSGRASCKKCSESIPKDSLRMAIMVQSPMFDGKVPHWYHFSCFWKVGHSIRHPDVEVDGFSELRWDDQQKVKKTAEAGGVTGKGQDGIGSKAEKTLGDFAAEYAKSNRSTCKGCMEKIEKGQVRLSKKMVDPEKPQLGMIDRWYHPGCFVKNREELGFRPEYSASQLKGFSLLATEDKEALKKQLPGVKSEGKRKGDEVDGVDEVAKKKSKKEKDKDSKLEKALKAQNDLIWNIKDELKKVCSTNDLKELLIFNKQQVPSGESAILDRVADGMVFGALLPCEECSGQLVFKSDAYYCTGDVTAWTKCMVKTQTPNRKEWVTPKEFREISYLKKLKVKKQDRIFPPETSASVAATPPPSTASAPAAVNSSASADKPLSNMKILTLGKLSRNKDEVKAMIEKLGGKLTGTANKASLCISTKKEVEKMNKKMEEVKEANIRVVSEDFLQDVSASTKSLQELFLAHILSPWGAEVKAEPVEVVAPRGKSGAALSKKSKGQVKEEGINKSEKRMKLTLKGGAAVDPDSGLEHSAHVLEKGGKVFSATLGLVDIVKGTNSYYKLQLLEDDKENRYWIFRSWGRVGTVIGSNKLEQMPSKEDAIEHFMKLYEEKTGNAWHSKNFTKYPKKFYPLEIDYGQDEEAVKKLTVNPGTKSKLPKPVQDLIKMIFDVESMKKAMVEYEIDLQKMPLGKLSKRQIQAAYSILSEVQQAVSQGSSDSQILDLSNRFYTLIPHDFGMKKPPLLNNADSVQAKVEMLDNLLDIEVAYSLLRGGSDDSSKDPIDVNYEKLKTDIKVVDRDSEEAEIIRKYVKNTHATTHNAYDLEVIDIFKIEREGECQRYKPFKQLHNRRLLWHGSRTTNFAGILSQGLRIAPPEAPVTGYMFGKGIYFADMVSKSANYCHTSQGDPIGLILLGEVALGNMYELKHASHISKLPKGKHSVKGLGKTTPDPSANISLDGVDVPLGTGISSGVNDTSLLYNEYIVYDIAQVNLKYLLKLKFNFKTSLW

- MRT inf [3]: 36 min
- half-life [5]: 3.11 min
- CLint scaled [6]: 681 mL/min/kg
- IC50 (DNA polymerase theta): 88 nM
- IC50 (SW48): 2900 nM
- IC50 (HCC1937): 20900 nM
- CLint scaled [12]: 1070 mL/min/kg
- IC50 [13]: 194 nM
- IC50 [14]: 1100 nM
- half-life [15]: 120 min
- IC50 [16]: 5.4 nM
SMILES: COc1ccc(Cl)cc1-c1cc(C)ncc1C(=O)Nc1nnc(OCC2CCN(C(=O)c3cc(Cc4n[nH]c(=O)c5ccccc45)ccc3F)CC2)s1
- Activity (MDA-MB-231 [1]): 26.7%
- Activity (MDA-MB-231 [2]): Active
- inhibition in vivo at 40 mg/kg (MDA-MB-231 [4]): 74.7%
- Activity (MDA-MB-231 [7]): Active
- Activity (MDA-MB-231 [8]): Active
- Activity [9]: Non-Toxic
- Activity [10]: Non-Toxic
- Activity (MDA-MB-231 [11]): Active
